Source: ChEMBL document CHEMBL1142044, “Estrogen receptor ligands. Part 10: Chromanes: old scaffolds for new SERAMs” (Bioorg Med Chem Lett, 2005)

How the values were obtained:
Format in all cases: ADME, organism-based
[1] = Bioavailability in rat (female) (dose 1 mg/kg i.v. and 2 mg/kg p.o.); details: in vivo, po
[2] = Plasma clearance in female rat was determined with intravenous dosing at 1 mpk and oral dosing at 2 mpk; details: 1 mg/kg
[3] = Half life in female rat was determined with intravenous dosing at 1 mpk and oral dosing at 2 mpk; details: in vivo

SMILES	bioavailability [1]	clearance [2]	half-life [3]
C[C@@H]1c2cc(O)ccc2O[C@@H](c2ccc(OCCN3CCCCC3)cc2)[C@H]1c1ccc(O)cc1	45%	0.462 L/h/kg	8.1 h
C[C@@H]1c2c(ccc(O)c2F)O[C@@H](c2ccc(OCCN3CCCCC3)cc2)[C@H]1c1ccc(O)cc1	54%	1.01 L/h/kg	11.2 h
C[C@@H]1c2c(ccc(O)c2F)O[C@@H](c2ccc(OC[C@H](C)N3CCCC3)cc2)[C@H]1c1ccc(O)cc1	31%	2.56 L/h/kg	4.4 h
C[C@H]1CCN([C@@H](C)COc2ccc([C@@H]3Oc4ccc(O)c(F)c4[C@@H](C)[C@@H]3c3ccc(O)cc3)cc2)C1	44%	0.54 L/h/kg	6.1 h
C[C@@H]1CCN(CCOc2ccc([C@@H]3Oc4ccc(O)c(F)c4[C@@H](C)[C@@H]3c3ccc(O)cc3)cc2)C1	43%	1.07 L/h/kg	8 h
C[C@@H]1c2ccc(O)cc2O[C@@H](c2ccc(OCCN3CCCCC3)cc2)[C@H]1c1ccc(O)cc1	2%	0.57 L/h/kg	5.9 h
